Here are results for 26 compounds from US20260234123A1, “Inhibitors of NLRP3” (Mwyngil Therapeutics, Inc., priority 2023, published 2026).

Read-outs that look alike come from different tables or passages of the source. Bounds are passed on as bounds.

The assay has as its system IL1b release THP-1. As to the kind of experiment: IL1b release THP-1 (ELISA). The settings on record: Homo sapiens. Format: cell-based. On the procedure: Example A. Primary Assays Used to Determine IL1b Release THP-1 (ELISA)
• Microbiological safety cabinet, classII (NuAire, USA) • CO2 incubator (VWR Science, USA) • Countess Automated Cell Counter (Invitrogen, USA, cat. number C10227) • Centrifuge CM 6M (Elmi, Latvia) • Serological pipettes 2, 5, 10, 25, 50, 100 ml sterile (Santa Cruz Biotechnology, Inc., USA, sc-200277, sc-200279, sc-200281, sc-200283, Sc-213234, sc-516777) • Single and multichannel pipettes 0.2-10 μL, 50-1200 μL (Eppendorf AG-Hamburg, Germany) • 50 mL PP sterile tubes (Greiner, cat. Number 210261).
• RPMI-1640 (PanEco, C330) • Sodium pyruvate (Paneco, cat. number Φ023) • Non-Essential amino acids 50× (Paneco, Φ116) • Essential amino acids 50× (Paneco, Φ115/50) • FBS (Hyclone Laboratories Inc, USA, SV30160.03) • Antibiotic-antimycotic (Gibco, USA, 15240-062) • 2-mercaptoethanol 1000×55 mM (Gibco, USA, 21985-023) • LPS-EB ultrapure (invivogen, cat. number tlrl-3pelps) • Nigericin (Sigma, cat. number N7143) • ELISA kit, IL-1beta (Cat #A-8766, Interleukin-1 beta-EIA-BEST, Vector Best). LPS Preparation (5 mg/ml): • 1. Add 1 ml of endotoxin-free water according manufacturer's protocol • 2. Vortex until complete solubilization • 3. Aliquote and store at […] for long term storage.
• 1. Add methanol to 10 mg of powder to produce the 10 mM Nigericin solution • 2. Vortex until complete solubilization • 3. Store at 4° C.
THP-1 cells were propagated in RPMI-1640 (10% FBS, Antibiotic-antimycotic 1×, non-Essential amino acids 1×, Essential amino acids 1×, Sodium pyruvate 2×, 2-mercaptoethanol 0.05 mM) at 37° C. and at 5% CO2 in an incubator.
• 1. THP-1 cells were spined at 100 g for 5 min in 50 ml tube. • 2. THP-1 cells were resuspended in warm culture medium (w/o FBS, w/o Antibiotic-antimycotic, non-Essential amino acids 1×, Essential amino acids 1×, Sodium pyruvate 2×) to the concentration 1,3×10^6 cells. • 3. THP-1 cells were primed in tube with 1 μg/ml of LPS for 4 h at 37° C. and at 5% CO2 in an incubator. • 4. THP-1 cells were stimulated with 10 μM of Nigericin (Cat #N7143-10 MG, Sigma Aldrich) for 2 h at 37° C. and at 5% CO2 in an incubator. • 5. After the full activation, the supernatant was collected and the levels of IL-1β were assessed via ELISA according manufacturer instructions (Cat #A-8766, Vector Best).
The average EC50 values are shown in Table A, wherein “A” corresponds to EC50: A≤0.5 μM, “B” corresponds to 0.5 μM<EC50≤1.0 μM, “C” 1.0 μM<EC50≤5.0 μM, “D” corresponds to 5.0 μM<EC50≤30 μM and “E” corresponds to EC50>30 μM.

Where [1] appears, read: average EC50, THP-1 cells primed with 1 μg/ml LPS 4 h, stimulated with 10 μM Nigericin 2 h, IL-1β in supernatant by ELISA, read-out: THP 1 IL 1b, EC50.

By EC50 is commonly meant the midpoint of the concentration-response curve. For `Cc1cc(C(F)(F)F)cc(NS(C)(=O)=O)c1-c1ccc(N[C@@H]2CCCN(C)C2)nn1` [Compound 1, (R)—N-(3-methyl-2-(6-((1-methylpiperidin-3-yl)amino)pyridazin-3-yl)-5-(trifluoromethyl)phenyl) methanesulfonamide], the 50% effective concentration (EC50) under setting [1] is 1 to 5 µM.
On to `CCN1CCC[C@@H](Nc2ccc(-c3c(C)cc(C(F)(F)F)cc3NS(C)(=O)=O)nn2)C1` [Compound 2, (R)—N-(2-(6-((1-Ethylpiperidin-3-yl)amino)pyridazin-3-yl)-3-methyl-5-(trifluoromethyl)phenyl) methanesulfonamide], for which, under setting [1], the EC50 is 0.5 to 1 µM.
Take `Cc1cc(N[C@@H]2CCCN(C)C2)nnc1-c1ccc(C(F)(F)F)cc1NS(C)(=O)=O` [Compound 4, (R)—N-(2-(4-Methyl-6-((1-methylpiperidin-3-yl)amino)pyridazin-3-yl)-5-(trifluoromethyl)phenyl) methanesulfonamide]: under setting [1], the EC50 lay in the range of 0.5 to 1 µM.
As for `CCN1CCC[C@@H](Nc2cc(C)c(-c3ccc(C(F)(F)F)cc3NS(C)(=O)=O)nn2)C1` [Compound 5, (R)—N-(2-(6-((1-Ethylpiperidin-3-yl)amino)-4-methylpyridazin-3-yl)-5-(trifluoromethyl)phenyl) methanesulfonamide], the EC50 under setting [1] was below 0.5 µM.
Regarding `Cc1cc(N[C@@H]2CCCN(CCO)C2)nnc1-c1ccc(C(F)(F)F)cc1NS(C)(=O)=O` [Compound 6, (R)—N-(2-(6-((1-(2-Hydroxyethyl)piperidin-3-yl)amino)-4-methylpyridazin-3-yl)-5-(trifluoromethyl)phenyl) methanesulfonamide], under setting [1], the EC50 was 0.5 to 1 µM.
Still for that read-out and setting: then `Cc1cc(-c2ccc(C(F)(F)F)cc2NS(C)(=O)=O)nnc1N[C@@H]1CCCN(C)C1` [Compound 7, (R)—N-(2-(5-Methyl-6-((1-methylpiperidin-3-yl)amino)pyridazin-3-yl)-5-(trifluoromethyl)phenyl) methanesulfonamide], with below 0.5 µM; and `CCN1CCC[C@@H](Nc2nnc(-c3ccc(C(F)(F)F)cc3NS(C)(=O)=O)cc2C)C1` [Compound 8, (R)—N-(2-(6-((1-Ethylpiperidin-3-yl)amino)-5-methylpyridazin-3-yl)-5-(trifluoromethyl)phenyl) methanesulfonamide], with below 0.5 µM; and `Cc1cc(-c2ccc(C(F)(F)F)cc2NS(C)(=O)=O)nnc1N[C@@H]1CCCN(CCO)C1` [Compound 9, (R)—N-(2-(6-((1-(2-Hydroxyethyl)piperidin-3-yl)amino)-5-methylpyridazin-3-yl)-5-(trifluoromethyl)phenyl) methanesulfonamide], with 0.5 to 1 µM.
Take `Cc1cc(N[C@@H]2CCCN(C)C2)nnc1-c1ccc(C(F)(F)F)c2c1NS(=O)(=O)N2` [Compound 10, (R)-4-(4-Methyl-6-((1-methylpiperidin-3-yl)amino)pyridazin-3-yl)-7-(trifluoromethyl)-1,3-dihydrobenzo[c][1,2,5]thiadiazole 2,2-dioxide]: the EC50 under setting [1] is 5 to 30 µM.
Take `Cc1cc(N[C@@H]2CCCN(C)C2)nnc1-c1ccc(C(F)(F)F)c2cn[nH]c12` [Compound 14, (R)-5-Methyl-N-(1-methylpiperidin-3-yl)-6-(4-(trifluoromethyl)-1H-indazol-7-yl)pyridazin-3-amine]: the 50% effective concentration (EC50) under setting [1] is 1 to 5 µM.
On the same count and under the same terms, then `CCN1CCC[C@@H](Nc2cc(C)c(-c3ccc(C(F)(F)F)c4cn[nH]c34)nn2)C1` [Compound 15, (R)—N-(1-Ethylpiperidin-3-yl)-5-methyl-6-(4-(trifluoromethyl)-1H-indazol-7-yl)pyridazin-3-amine], with 1 to 5 µM; and `Cc1cc(N[C@@H]2CCCN(CCO)C2)nnc1-c1ccc(C(F)(F)F)c2cn[nH]c12` [Compound 16, (R)-2-(3-((5-Methyl-6-(4-(trifluoromethyl)-1H-indazol-7-yl)pyridazin-3-yl)amino)piperidin-1-yl) ethan-1-ol], with 1 to 5 µM.
The same measure, in the same setting: to `Cc1cc(-c2ccc(C(F)(F)F)c3cn[nH]c23)nnc1N[C@@H]1CCCN(C)C1` [Compound 17, (R)-4-Methyl-N-(1-methylpiperidin-3-yl)-6-(4-(trifluoromethyl)-1H-indazol-7-yl)pyridazin-3-amine] belongs 5 to 30 µM; to `CCN1CCC[C@@H](Nc2nnc(-c3ccc(C(F)(F)F)c4cn[nH]c34)cc2C)C1` [Compound 18, (R)—N-(1-ethylpiperidin-3-yl)-4-methyl-6-(4-(trifluoromethyl)-1H-indazol-7-yl)pyridazin-3-amine], above 30 µM; to `Cc1cc(-c2ccc(C(F)(F)F)c3cn[nH]c23)nnc1N[C@@H]1CCCN(CCO)C1` [Compound 19, 2-[(3R)-3-[[4-methyl-6-[4-(trifluoromethyl)-1H-indazol-7-yl]pyridazin-3-yl]amino]-1-piperidyl]ethanol], above 30 µM.
Same read-out and setting: then `Cc1cc(N[C@@H]2CCCN(C)C2)nnc1-c1ccc(C(F)(F)F)c2nn[nH]c12` [Compound 20, (R)-5-Methyl-N-(1-methylpiperidin-3-yl)-6-(4-(trifluoromethyl)-1H-benzo[d][1,2,3]triazol-7-yl)pyridazin-3-amine], with above 30 µM; and `Cc1cc(-c2ccc(C(F)(F)F)c3nn[nH]c23)nnc1N[C@@H]1CCCN(C)C1` [Compound 21, 4-methyl-N-[(3R)-1-methyl-3-piperidyl]-6-[7-(trifluoromethyl)-3H-benzotriazol-4-yl]pyridazin-3-amine], with 5 to 30 µM.
Take `Cc1c(N[C@@H]2CCCN(C)C2)nnc(-c2ccc(C(F)(F)F)c3nn[nH]c23)c1C` [Compound 22, (R)-4,5-dimethyl-N-(1-methylpiperidin-3-yl)-6-(4-(trifluoromethyl)-1H-benzo[d][1,2,3]triazol-7-yl)pyridazin-3-amine]: the EC50 under setting [1] was 5 to 30 µM.
The same measure, in the same setting: then `CN1CCC[C@@H](Nc2cc(C(F)(F)F)c(-c3ccc(C(F)(F)F)c4nn[nH]c34)nn2)C1` [Compound 23], with above 30 µM; and `CN1CCC[C@@H](Nc2nnc(-c3ccc(C(F)(F)F)c4nn[nH]c34)cc2C(F)(F)F)C1` [Compound 24], with above 30 µM.
For the compound `Cc1cc(-c2ccc(C(F)(F)F)cc2NS(C)(=O)=O)nnc1N[C@@H]1CCCN(C(C)C)C1` [Compound 25, (R)—N-(2-(6-((1-Isopropylpiperidin-3-yl)amino)-5-methylpyridazin-3-yl)-5-(trifluoromethyl)phenyl) methanesulfonamide], the EC50 (THP-1, read-out: THP 1 IL 1b, EC50, μM) is below 0.5 µM.
With `Cc1cc(-c2ccc(C(F)(F)F)cc2NS(C)(=O)=O)nnc1N[C@@H]1CCCN(C2CCCC2)C1` [Compound 26, (R)—N-(2-(6-((1-Cyclopentylpiperidin-3-yl)amino)-5-methylpyridazin-3-yl)-5-(trifluoromethyl)phenyl) methanesulfonamide], the EC50 under setting [1] is below 0.5 µM.
Same read-out and setting: to `Cc1cc(N[C@@H]2CCCN(C(C)C)C2)nnc1-c1ccc(C(F)(F)F)cc1NS(C)(=O)=O` [Compound 27] belongs below 0.5 µM; to `CCN1CCC[C@@H](Nc2nnc(-c3ccc(C(F)(F)F)cc3NS(C)(=O)=O)cc2C2CC2)C1` [Compound 28, (R)—N-(2-(5-Cyclopropyl-6-((1-ethylpiperidin-3-yl)amino)pyridazin-3-yl)-5-(trifluoromethyl)phenyl) methane-sulfonamide], below 0.5 µM.
Same read-out and setting: to `Cc1cc(-c2ccc(C(F)(F)F)cc2NC(=O)C(C)C)nnc1N[C@@H]1CCCN(C(C)C)C1` [Compound 29, N-[2-[6-[[(3R)-1-isopropyl-3-piperidyl]amino]-5-methyl-pyridazin-3-yl]-5-(trifluoromethyl)phenyl]-2-methyl-propanamide] belongs 1 to 5 µM.
For the compound `CCN1CCC[C@@H](Nc2nnc(-c3ccc(C(F)(F)F)cc3NS(C)(=O)=O)c3c2C2CCC3CC2)C1` [Compound 30, (R)—N-(2-(4-((1-Ethylpiperidin-3-yl)amino)-5,6,7,8-tetrahydro-5,8-ethanophthalazin-1-yl)-5-(trifluoromethyl)phenyl) methanesulfonamide], under setting [1], the EC50 is below 0.5 µM.
